Ten compounds from BindingDB's records for doi:10.1021/acs.jmedchem.8b00408 (Duquesne University, 2018) can be followed below.

Assay [1] in a line: Binding affinity to human PCFT4 expressed in human HeLa R1-11 cells assessed as antiproliferative activity measured as reduction in cell growth after 96 hrs by Cell-Titer Blue assay.
A short description of assay [2]: Binding affinity to human RFC expressed in Chinese hamster PC43-10 cells assessed as antiproliferative activity measured as reduction in cell growth after 96 hrs by Cell-Titer Blue assay.
Assay [3] can be described thus: Binding affinity to human RFC2 expressed in human HeLa R1-11 cells assessed as antiproliferative activity measured as reduction in cell growth after 96 hrs by Cell-Titer Blue assay.
A short description of assay [4]: Binding affinity to human FRalpha expressed in Chinese hamster RT16 cells assessed as antiproliferative activity measured as reduction in cell growth after 96 hrs by Cell-Titer Blue assay.
Assay [5] is described as follows: Binding affinity to human FRbeta expressed in Chinese hamster D4 cells assessed as antiproliferative activity measured as reduction in cell growth after 96 hrs by Cell-Titer Blue assay.
A short description of assay [6]: Binding affinity to human PCFT expressed in Chinese hamster R2/PCFT4 cells assessed as antiproliferative activity measured as reduction in cell growth after 96 hrs by Cell-Titer Blue assay.
The target of assay [7] is Folate receptor alpha (Homo sapiens) (UniProt P15328). Nature of the assay: Binding affinity to human FRalpha expressed in human HeLa R1-11-FR2 cells assessed as antiproliferative activity measured as reduction in cell growth after 96 hrs by Cell-Titer Blue assay.
Folate receptor alpha (Homo sapiens), sequence (P15328 whole entry, looked up): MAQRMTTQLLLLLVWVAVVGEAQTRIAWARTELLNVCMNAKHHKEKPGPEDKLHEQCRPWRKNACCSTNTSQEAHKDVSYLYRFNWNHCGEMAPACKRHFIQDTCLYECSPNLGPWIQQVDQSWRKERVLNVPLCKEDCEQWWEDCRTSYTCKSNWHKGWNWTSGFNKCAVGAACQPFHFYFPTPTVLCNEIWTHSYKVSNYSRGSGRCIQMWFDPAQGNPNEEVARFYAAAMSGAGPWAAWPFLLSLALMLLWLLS

`Nc1nc2[nH]c(CCCc3ccc(C(=O)N[C@@H](CCC(=O)O)C(=O)O)cc3)cc2c(=O)[nH]1` [(S)-2-(4-(3-(2-amino-4-oxo-4,7-dihydro-3H-pyrrolo[2,3-d]pyrimidin-6-yl)propyl)benzamido)pentanedioic acid]: the 50% inhibitory concentration (IC50) in assay [1] is 9.7 nM; in assay [2] it was 304 nM; in assay [3], more than 1000 nM.
For `Nc1nc2[nH]c(CCCCc3csc(C(=O)N[C@@H](CCC(=O)O)C(=O)O)c3)cc2c(=O)[nH]1` the same measures were 73 nM, more than 1000 nM and more than 1000 nM.
With `Nc1nc2[nH]c(CCCCc3ccc(C(=O)N[C@@H](CCC(=O)O)C(=O)O)cc3F)cc2c(=O)[nH]1`, the figures for the half-maximal inhibitory concentration (IC50) in assay [4], in assay [5] and in assay [6] were 1.4 nM, 0.93 nM and 207 nM, respectively.
For `Nc1nc2[nH]c(CCCCc3csc(C(=O)N[C@@H](CCC(=O)O)C(=O)O)c3F)cc2c(=O)[nH]1`, the 50% inhibitory concentration (IC50) was 5 nM in assay [1], more than 1000 nM in assay [2], 213 nM in assay [3] and 6 nM in assay [6].
With `Nc1nc2[nH]c(CCCCc3ccc(C(=O)N[C@@H](CCC(=O)O)C(=O)O)nc3)cc2c(=O)[nH]1`, the 50% inhibitory concentration (IC50) was 9 nM in assay [1], more than 1000 nM in assay [2] and 634 nM in assay [3].
Consider `Nc1nc2[nH]c(CCCc3ccc(C(=O)N[C@@H](CCC(=O)O)C(=O)O)s3)cc2c(=O)[nH]1`, for which the IC50 in assay [2] worked out at 106 nM; in assay [3], 444 nM.
Turning to `Nc1nc2[nH]c(CCCc3csc(C(=O)N[C@@H](CCC(=O)O)C(=O)O)c3F)cc2c(=O)[nH]1`, the IC50 in assay [4] is 0.14 nM; in assay [5] it was 0.19 nM; in assay [7], 3.1 nM; in assay [3] it was 66 nM; in assay [6], 1.5 nM.
Regarding `Nc1nc2[nH]c(CCCc3csc(C(=O)N[C@@H](CCC(=O)O)C(=O)O)c3)cc2c(=O)[nH]1`, the results for the IC50 in assay [1] and in assay [3] were 40 nM and 63 nM, respectively.
On to `Nc1nc2[nH]c(CCCCc3ccc(C(=O)N[C@@H](CCC(=O)O)C(=O)O)cc3)cc2c(=O)[nH]1` [N-{4-[4-(2-Amino-4-oxo-4,7-dihydro-3H-pyrrolo[2,3-d]pyrimidin-6-yl)butyl]benzoyl}-L-glutamic Acid], for which the IC50 in assay [2] and in assay [3] was more than 1000 nM in each case.
For the compound `Nc1nc2[nH]c(CCCc3ccc(C(=O)N[C@@H](CCC(=O)O)C(=O)O)c(F)c3)cc2c(=O)[nH]1`, the IC50 in assay [1] is 5.5 nM; in assay [5], 3.9 nM; in assay [2], 62 nM; in assay [7], 5.2 nM; in assay [3], 507 nM; in assay [6], 3.8 nM.
